What follows are molecules tested against Recombinant human HSD17B13 (Homo sapiens (Human), UniProt Q7Z5P4) (assay: HSD17B13 rapid-fire mass spectrometry assay (RF/MS assay)). Conditions: inhibition of HSD17B13; LTB4 10 μM, NAD+ 0.5 mM, RT 3 h; IC50 ranges A-E.
Assay type: biochemical
Outline: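 Sf9-expressed human HSD17B13 (80 nM) with 10 μM LTB4 and 0.5 mM NAD+, incubated with compound (0–100 μM) for 3 h at RT in Tris pH 7.5/BSA/Tween-20. After formic acid quench, LTB4 conversion to 12-oxo-LTB4 measured by RapidFire MS/MS. IC50 from normalised residual activity, duplicates.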

Chain of Recombinant human HSD17B13 (Q7Z5P4 20-300): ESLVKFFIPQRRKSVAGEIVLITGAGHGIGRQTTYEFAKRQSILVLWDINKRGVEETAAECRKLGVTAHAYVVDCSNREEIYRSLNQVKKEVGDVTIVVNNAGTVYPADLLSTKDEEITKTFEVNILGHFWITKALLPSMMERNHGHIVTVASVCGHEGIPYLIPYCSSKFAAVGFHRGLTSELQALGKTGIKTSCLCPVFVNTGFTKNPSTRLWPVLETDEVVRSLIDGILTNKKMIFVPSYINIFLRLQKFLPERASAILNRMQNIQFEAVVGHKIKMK

Row | IC50 [nM] | Compound
1 | 100 to 500 | CCOc1c(F)c(-c2nc(S(=O)(=O)Nc3cc(F)c(C(=O)O)cc3OC)cs2)ccc1[C@H]1CC[C@H](C(F)(F)F)CC1 [Example 815]
2 | < 100 | COc1cc(C(=O)O)c(F)cc1NS(=O)(=O)c1csc(-c2ccc(C3CCC(C)(C)CC3)cc2C(F)(F)F)n1 [Example 524, 4-((2-(4-(4,4-dimethylcyclohexyl)-2-(trifluoromethyl)phenyl)thiazole)-4-sulfonamido)-2-fluoro-5-methoxybenzoic acid]
3 | 100 to 500 | CCCCOc1c(C2=CCC(C)(C)CC2)ccc(-c2nc(S(=O)(=O)Nc3cc(F)c(C(=O)O)cc3OC)cs2)c1F [Example 578]
4 | < 100 | CCC1CC=C(c2ccc(-c3nc(S(=O)(=O)Nc4cc(F)c(C(=O)O)cc4OC)co3)cc2)CC1 (centres unmarked) [Example 494]
5 | 100 to 500 | COc1cc(C(=O)O)ccc1NS(=O)(=O)N1Cc2nc(C3=CCC(F)(F)CC3)sc2C1 [Example 358]
6 | 100 to 500 | COc1cc(C(=O)O)ccc1NS(=O)(=O)c1csc(-c2cccc(C)c2C)n1 [Example 156]
7 | 100 to 500 | COc1cc(C(=O)O)ccc1NS(=O)(=O)c1ccc(-c2ccc(C3CCCCC3)cc2)c(F)c1 [Example 326, 4-((4′-cyclohexyl-2-fluoro-[1,1′-biphenyl])-4-sulfonamido)-3-methoxybenzoic acid]
8 | 500 to 1000 | O=C(O)c1ccc(NS(=O)(=O)c2csc(-c3ccc(O)cc3)n2)cc1 [Example 63]
9 | 100 to 500 | COc1cc(C(=O)O)c(F)cc1NS(=O)(=O)c1csc(-c2ccc(C3=CCC(C)(C)CC3)c3[nH]ncc23)n1 [Example 538]
10 | 1000 to 100000 | COc1cc(C(=O)O)ccc1NS(=O)(=O)c1csc(-c2cccc(C#N)c2)n1 [Example 129]
11 | 100 to 500 | COc1cc(C(=O)O)ccc1NS(=O)(=O)c1csc(C2CCC(c3ccccc3)CC2)n1 (single isomer, unassigned) [Example 369]
12 | < 100 | COc1cc(C(=O)O)c(F)cc1NS(=O)(=O)c1csc(-c2ccc(C3CCC(C(F)(F)F)CC3)c(OC(C)C)c2F)n1 (centres unmarked) [Example 812]
13 | 100 to 500 | COc1cc(C(=O)O)c(F)cc1NS(=O)(=O)c1ccc2sc(-c3ccc(C4CCCC4)cc3)nc2c1 [Example 662]
14 | < 100 | COc1cccc(-c2ccc(S(=O)(=O)Nc3ccc(C(=O)O)cc3OC)s2)c1 [Example 200]
15 | < 100 | COc1cc(C(=O)O)ccc1NS(=O)(=O)c1ccc(-c2cccc(C)c2)s1 [Example 211]
16 | < 100 | COc1cc(C(=O)O)ccc1NS(=O)(=O)c1csc(-c2ccccc2)n1 [Example 102]
17 | < 100 | COc1cc(C(=O)O)ccc1NS(=O)(=O)c1csc(-c2ccc(-c3ccc4ccccc4c3)cc2)n1 [Example 404]
18 | < 100 | COc1cc(C(=O)O)c(F)cc1NS(=O)(=O)c1csc(-c2ccc(C3=CCC(C(C)(C)C)CC3)c(OC(C)C)c2F)n1 (centres unmarked) [Example 593]
19 | 1000 to 100000 | COc1cc(C(=O)O)ccc1NS(=O)(=O)N1CCN(c2ccc(OC(F)(F)F)cc2)C(=O)C1 [Example 317]
20 | < 100 | COc1cc(C(=O)O)ccc1NS(=O)(=O)c1coc(-c2ccc([C@H]3CC[C@@H](C(F)(F)F)CC3)cc2)n1 [Example 609]
21 | 100 to 500 | COc1cc(C(=O)O)c(F)cc1NS(=O)(=O)c1csc(-c2ccc(F)cc2)n1 [Example 767]
22 | 100 to 500 | COc1cc(C(=O)O)ccc1NS(=O)(=O)c1csc(/C=C/c2ccccc2)n1 [Example 167]
23 | 1000 to 100000 | COc1cc(C(=O)O)ccc1NS(=O)(=O)N1CCN(C2CCCC2)CC1 [Example 315]
24 | < 100 | COc1cc(C(=O)O)c(F)cc1NS(=O)(=O)c1csc(-c2ccc(C3=CCC(C(C)(C)C)CC3)cc2C(F)(F)F)n1 (centres unmarked) [Example 776]
25 | < 100 | COc1cc(C(=O)O)ccc1NS(=O)(=O)c1csc(C#Cc2cccc(C)c2)n1 [Example 186]

Row | Compound | IC50 [nM]
26 | CCOP(=O)(O)c1ccc(NS(=O)(=O)c2csc(C#Cc3cccc(OC(F)(F)F)c3)n2)c(OC)c1 [Example 400, ethyl hydrogen (3-methoxy-4-((2-((3-(trifluoromethoxy)phenyl)ethynyl)thiazole)-4-sulfonamido)phenyl)phosphonate] | 1000 to 100000
